The values that follow come from article PMC7604414, “Favipiravir at high doses has potent antiviral activity in SARS-CoV-2−infected hamsters, whereas hydroxychloroquine lacks activity” (Proceedings of the National Academy of Sciences of the …, 2020).

Assay [1] relates to SARS-CoV-2. Further details: method as in PMID 33741945. The note with it: upon favipiravir treatment; cited from earlier work.
The test system of assay [2] is SARS-CoV-2. Further details: species or system Syrian hamsters. The note with it: hamster, in vivo.

Turning to `NC(=O)c1nc(F)c[nH]c1=O` [favipiravir], in the assay with SARS-CoV-2 [1], the “increase of mean number of mutations in the viral RNA, factor” value is listed as “more than three”. Moreover, the “increase in mean virus variants vs untreated hamsters” value with SARS-CoV-2 [2] is on record as 3.2 fold.
